From EPA's CvTdb concentration-time database

Columns and labels:
Test in all cases: concentration in plasma after dosing
Rat [1] = details: 4 h; dosed: Oxymetholone; 20 mg/kg; iv; Male; F344/N
Rat [2] = details: 10 min; dosed: Oxymetholone; 120 mg/kg; oral; Male; F344/N
Rat [3] = details: 5 min; dosed: Oxymetholone; 20 mg/kg; iv; Male; F344/N
Rat [4] = details: 2 h; dosed: Oxymetholone; 20 mg/kg; iv; Male; F344/N
Rat [5] = details: 2 h; dosed: Oxymetholone; 20 mg/kg; iv; Male; F344/N; remark: listed apart in the source
Rat [6] = details: 4 h; dosed: Oxymetholone; 30 mg/kg; oral; Male; F344/N
Rat [7] = details: 2 h; dosed: Oxymetholone; 30 mg/kg; oral; Female; F344/N
Rat [8] = details: 3 h; dosed: Oxymetholone; 120 mg/kg; oral; Male; F344/N
Rat [9] = details: 1 h; dosed: Oxymetholone; 120 mg/kg; oral; Male; F344/N
Rat [10] = details: 1 h; dosed: Oxymetholone; 20 mg/kg; iv; Male; F344/N
Rat [11] = details: 40 min; dosed: Oxymetholone; 30 mg/kg; oral; Male; F344/N
Rat [12] = details: 2 h; dosed: Oxymetholone; 120 mg/kg; oral; Male; F344/N
Rat [13] = details: 1 h; dosed: Oxymetholone; 20 mg/kg; iv; Male; F344/N; remark: listed apart in the source
Rat [14] = details: 20 min; dosed: Oxymetholone; 20 mg/kg; iv; Male; F344/N
Rat [15] = details: 40 min; dosed: Oxymetholone; 120 mg/kg; oral; Male; F344/N
Rat [16] = details: 10 min; dosed: Oxymetholone; 20 mg/kg; iv; Male; F344/N
Rat [17] = details: 2 h; dosed: Oxymetholone; 30 mg/kg; oral; Female; F344/N; remark: listed apart in the source
Rat [18] = details: 0.5 h; dosed: Oxymetholone; 20 mg/kg; iv; Male; F344/N
Rat [19] = details: 4 h; dosed: Oxymetholone; 120 mg/kg; oral; Male; F344/N
Rat [20] = details: 20 min; dosed: Oxymetholone; 20 mg/kg; iv; Male; F344/N; remark: listed apart in the source
Rat [21] = details: 1 h; dosed: Oxymetholone; 120 mg/kg; oral; Male; F344/N; remark: listed apart in the source
Rat [22] = details: 40 min; dosed: Oxymetholone; 120 mg/kg; oral; Male; F344/N; remark: listed apart in the source
Rat [23] = details: 2 h; dosed: Oxymetholone; 120 mg/kg; oral; Male; F344/N; remark: listed apart in the source
Rat [24] = details: 8 h; dosed: Oxymetholone; 120 mg/kg; oral; Male; F344/N
Rat [25] = details: 10 min; dosed: Oxymetholone; 120 mg/kg; oral; Male; F344/N; remark: listed apart in the source
Rat [26] = details: 0.5 h; dosed: Oxymetholone; 20 mg/kg; iv; Male; F344/N; remark: listed apart in the source
Rat [27] = details: dosed: Oxymetholone, F344/N
Rat [28] = details: 3 h; dosed: Oxymetholone; 120 mg/kg; oral; Male; F344/N; remark: listed apart in the source
Rat [29] = details: 5 min; dosed: Oxymetholone; 20 mg/kg; iv; Male; F344/N; remark: listed apart in the source
Rat [30] = details: 12 h; dosed: Oxymetholone; 120 mg/kg; oral; Male; F344/N
Rat [31] = details: 5 h; dosed: Oxymetholone; 120 mg/kg; oral; Male; F344/N
Rat [32] = details: 2 h; dosed: Oxymetholone; 30 mg/kg; oral; Male; F344/N
Rat [33] = details: 4 h; dosed: Oxymetholone; 30 mg/kg; oral; Male; F344/N; remark: listed apart in the source
Rat [34] = details: 2 h; dosed: Oxymetholone; 30 mg/kg; oral; Male; F344/N; remark: listed apart in the source
Rat [35] = details: 2 h; dosed: Oxymetholone; 120 mg/kg; oral; Female; F344/N
Rat [36] = details: 8 h; dosed: Oxymetholone; 120 mg/kg; oral; Male; F344/N; remark: listed apart in the source
Rat [37] = details: 6 h; dosed: Oxymetholone; 120 mg/kg; oral; Male; F344/N
Rat [38] = details: 40 min; dosed: Oxymetholone; 30 mg/kg; oral; Male; F344/N; remark: listed apart in the source
Rat [39] = details: 2 h; dosed: Oxymetholone; 120 mg/kg; oral; Female; F344/N; remark: listed apart in the source
Rat [40] = details: 10 min; dosed: Oxymetholone; 20 mg/kg; iv; Male; F344/N; remark: listed apart in the source

C[C@]12C/C(=C/O)C(=O)C[C@@H]1CC[C@@H]1[C@@H]2CC[C@@]2(C)[C@H]1CC[C@]2(C)O [Oxymetholone]
Details	concentration in plasma [ng/mL]
Rat [1]	376
Rat [2]	319
Rat [3]	20300
Rat [4]	914
Rat [5]	846
Rat [6]	316
Rat [7]	231
Rat [8]	1070
Rat [9]	952
Rat [10]	1490
Rat [11]	641
Rat [12]	1610
Rat [13]	881
Rat [14]	2210
Rat [15]	675
Rat [16]	8040
Rat [17]	276
Rat [18]	2190
Rat [19]	910
Rat [20]	3010
Rat [21]	739
Rat [22]	733
Rat [23]	1330
Rat [24]	203
Rat [25]	666
Rat [26]	1720
Rat [28]	1080
Rat [29]	14400
Rat [30]	255
Rat [31]	600
Rat [32]	711
Rat [33]	466
Rat [34]	875
Rat [35]	918
Rat [36]	339
Rat [37]	462
Rat [38]	629
Rat [39]	1020
Rat [40]	6510

concentration in plasma [ng/mL], Rat [27]
Details	Female	Male
0.5 h, 20 mg/kg, iv	–	2070
1 h, 20 mg/kg, iv	–	1210
1 h, 120 mg/kg, oral	–	999
1.5 h, 120 mg/kg, oral	–	616
2 h, 20 mg/kg, iv	–	619
2 h, 30 mg/kg, oral	266	875
2 h, 120 mg/kg, oral	687	1130
3 h, 120 mg/kg, oral	–	925
4 h, 20 mg/kg, iv	–	496
4 h, 30 mg/kg, oral	–	427
4 h, 120 mg/kg, oral	–	977
5 h, 120 mg/kg, oral	–	527
5 min, 20 mg/kg, iv	–	20600
6 h, 120 mg/kg, oral	–	806
8 h, 120 mg/kg, oral	–	428
10 min, 20 mg/kg, iv	–	5510
10 min, 120 mg/kg, oral	–	626
12 h, 120 mg/kg, oral	–	208
20 min, 20 mg/kg, iv	–	4270
20 min, 120 mg/kg, oral	–	788
40 min, 30 mg/kg, oral	–	564
40 min, 120 mg/kg, oral	–	684
